Experiments:
[1] = system: excised human nerve tissue (or nerve extracts); experiment: Phage display library screening (Example 2), NEB tissue-binding peptides: nerve tissue and nerve extracts versus muscle; settings: unique sequence count, peptides not binding muscle extracts; for Count Excised Nerve: tissue target: excised nerve; for Count Nerve Extract: tissue target: nerve extract; for Count Neuron: tissue target: neuron
Method: Phage display library screens were used to identify peptides that bind to target proteins (including specific laminin trimers) that are expressed in human nerves, as described in Table 3. These screens were also carried out to identify peptides that could bind selectively to nerves versus muscle. Such peptides could therefore be useful for systemic in-vivo labeling of nerves during fluorescence assisted surgery. Specifically, m 13 phage libraries expressing 7 or 12 random amino acid peptides, or a cyclic peptide CX7C, on the N-terminus of the minor coat protein pIII (New England Biolabs; NEB) were processed through multiple rounds of selection for binding to target proteins expressed in nerves, or to excised human nerves, nerve extracts, or muscle, as described further below.
To identify peptides selective for nerves versus muscle, phage from the same libraries used for specific target proteins were used to screen against excised human nerve tissue (or nerve extracts) and human muscle tissue.
Excised Nerve Tissue: Phage were processed through multiple cycles of selection, with representative phage being isolated and sequenced after each selection cycle. Specifically, for selection using human nerve tissue, a sample of […] tissue (2 mm by 2 mm) was washed prior to mixing and incubation with a phage library. After incubation, the mixture (containing mostly intact nerves with phage particles that had variable affinity for nerves) was centrifuged and the nerve pellet washed multiple times with PBS to remove phage with little or no affinity for nerve tissue. The pellet was homogenized and plated for titering and reamplification. Phage that were bound at each round were sequenced. NextGen sequencing of pools after 2, 3 and 4 rounds of selection were used to isolate candidate sequences that were further analyzed using bioinformatics.
Nerve Extracts: Phage libraries were incubated for up to 24 hours at 4° C. in 96 well plates that had been coated with a human nerve extract. Plates were then washed with PBS and phage were eluted using 0.2M glycine pH 2.0. Phage supernatants where then neutralized with Tris pH 9.0 prior to plating on TG1 bacteria and LB agar plates. Colonies were counted to determine titer followed by DNA preparation of pools of phage and NextGen sequencing. After rounds of selection, phage were pooled and amplified for iterative selection. Phage that eluted by 0.2M glycine pH 2.0 (the nerve binders) at each round were sequenced. NextGen sequencing of pools after 2, 3 and 4 rounds of selection were used to isolate candidate sequences that were further analyzed using bioinformatics.
Muscle Tissue: Phage were processed through multiple cycles of selection, with representative phage being isolated and sequenced after each selection cycle. Specifically, for selection using human skeletal muscle tissue, a sample of skeletal muscle tissue (2 mm by 2 mm) was washed prior to mixing and incubation with a phage library. After incubation, the mixture (containing mostly intact muscle with phage particles that had variable affinity for muscle) was centrifuged and the muscle pellet washed multiple times with PBS to remove phage with little or no affinity for muscle tissue. The pellet was then homogenized and plated for titering and reamplification. Phage that were bound at each round were sequenced. NextGen sequencing of pools after 2, 3 and 4 rounds of selection were used to isolate candidate sequences that were further analyzed using bioinformatics.
For all NEB sequence datasets, a python script was used to translate, trim, and filter the peptide sequences (see details above). A python script was used to group peptides from different assays according to tissue target (muscle, nerve, neuron, or nerve extract) and combine the unique sequence counts for each peptide. […]

Laminin 421/521 = experiment: phage display, NGS count

| Molecule | Count Excised Nerve [1] | Count Nerve Extract [1] | Count Neuron [1] | Count (Laminin 421/521) |
| --- | --- | --- | --- | --- |
| EIIVMSGSNVTN | 9 | 15 | 6 |  |
| LQTHSITYRHER | 7 | 19 | 12 |  |
| HGIVFSKRPFSN | 12 | 23 | 11 |  |
| VERLNWPKRMQS | 27 | 43 | 16 |  |
| VPVPKKMSLDPT | 8 | 14 | 6 |  |
| GWANSITYRNLY | 17 | 26 | 9 |  |
| WEKHTGPLSRYL | 6 | 19 | 13 |  |
| GTVSYMVKMDNN | 9 | 16 | 7 |  |
| SGEYNLIKPNLL | 20 | 27 | 7 |  |
| AFRFEFQVPDSH | 7 | 18 | 11 |  |
| EFARFRVFGVAE | 22 | 30 | 8 |  |
| YAWDTVASRNYK | 14 | 20 | 6 |  |
| HSGAYTIQASYK | 9 | 15 | 6 |  |
| FDPLSRNVPHKT | 16 | 22 | 6 |  |
| DRGLTILTDDLR | 27 | 34 | 7 |  |
| MLRHVDLTEPNA | 7 | 13 | 6 |  |
| DELVGGAPWYKS | 20 | 27 | 7 |  |
| TSAHHDRTLAGS | 6 | 12 | 6 |  |
| VESGHAYSVSSW | 14 | 20 | 6 |  |
| SEPIEKGSRTIV | 7 | 13 | 6 |  |
| NGMNWLQVHQLS | 12 | 18 | 6 |  |
| TDNGSFLGKLTS | 7 | 14 | 7 |  |

| Molecule | Count Excised Nerve [1] | Count Nerve Extract [1] | Count Neuron [1] | Count (Laminin 421/521) |
| --- | --- | --- | --- | --- |
| SDHTFKRVMFRW | 8 | 15 | 7 |  |
| VRSDMVSGGLQK | 14 | 20 | 6 |  |
| VRLPMLASMGHQ | 19 | 40 | 21 |  |
| TLNARDQLSING (nerve-binding peptide) | 7 | 13 | 6 |  |
| GMRTGDDSPKYP | 14 | 21 | 7 |  |
| WVGPDIIAQMRI | 8 | 16 | 8 |  |
| SPMANVWFNRLS | 7 | 17 | 10 |  |
| GHAHSLTQNPLF | 10 | 18 | 8 |  |
| NTEYSRYTSIWK | 8 | 14 | 6 |  |
| TVARSTAQERSI |  |  |  | 28 |
| CTSSSHQTC |  |  |  | 28 |
| SWHFTGTPFMNR |  |  |  | 28 |
| SVQTPMWRSLVG |  |  |  | 28 |
| SLPYAASLNSVE |  |  |  | 28 |
| TTLWLDRDEALK |  |  |  | 27 |
| TSAVSLR |  |  |  | 27 |
| CTDGRNFVC |  |  |  | 28 |
| QLQHVHL |  |  |  | 28 |
| SYTATWSEMSRS |  |  |  | 28 |
| GIVPSRHTTGLG |  |  |  | 28 |
| CLQKNHKFC |  |  |  | 27 |
| SVLSTGTANQRH |  |  |  | 28 |

| Molecule | Count Excised Nerve [1] | Count Nerve Extract [1] | Count Neuron [1] | Count (Laminin 421/521) |
| --- | --- | --- | --- | --- |
| RALDRYLPWSPH |  |  |  | 28 |
| AVRPLGLPDNHR |  |  |  | 29 |
| GWTSDLSRNVRG |  |  |  | 28 |
| SVVGWAAPRTAQ |  |  |  | 27 |
| GINLRALDLHAN |  |  |  | 27 |
| VIADQSKSAVAV |  |  |  | 27 |
| STNVQRA |  |  |  | 28 |
| AQNLRVHAWASL |  |  |  | 28 |
| EAVSTQI |  |  |  | 27 |
| ETGGLAYGSGQK |  |  |  | 28 |
| TILKPAAQGFAD |  |  |  | 27 |
| CVLKCEDQKYRG |  |  |  | 27 |
| DRMYSTVPAEGL |  |  |  | 27 |
| KFADTKLTSLRY |  |  |  | 28 |
| HTQIHRL |  |  |  | 28 |
| QPTPSQIKFTRT |  |  |  | 28 |
| CKSPIKGTC |  |  |  | 27 |
| HQSVTGVRSHFH |  |  |  | 27 |
| TALSHRHEAMRW |  |  |  | 28 |
| CTGETLLTC |  |  |  | 28 |
| TKGIAPK |  |  |  | 28 |
| CPMHQSKTC |  |  |  | 28 |
